Tests used:
[1] = biological target: CYP2C19 (Homo sapiens (Human), UniProt P33261); test: CYP enzyme inhibition in pooled human liver microsomes (S-mephenytoin); assay type: in vitro ADME
Method: Typical substrate metabolic responses of five major human CYP subtypes (CYP1A2, CYP2C9, CYP2C19, CYP2D6, CYP3A4) were evaluated using 150-donor pooled human liver microsomes (purchased from Corning, Cat. No.: 452117). The influence of different concentrations of each compound to be tested on metabolic responses of phenacetin (CYP1A2), diclofenac sodium (CYP2C9), S-mephenytoin (CYP2C19), bufuralol hydrochloride (CYP2D6), and midazolam (CYP3A4) was determined by liquid chromatography-mass spectrometry (LC/MS/MS). […] Then 200 μL of acetonitrile solution containing 3% formic acid and 40 nM internal standard verapamil was added and centrifuged at 4000 rpm for 50 min. The mixture was cooled on ice for 20 min and centrifuged at 4000 rpm for 20 min to precipitate the protein. Then 200 μL of supernatant was analyzed by LC-MS/MS. The peak area was calculated from the chromatogram. The residual activity ratio (%) was calculated according to the following equation: Peak area ratio=metabolite peak area/internal standard peak area Residual activity ratio (%)=peak area ratio of compounds-to-be-tested group/peak area ratio of blank group The half inhibitory concentration (IC50) for CYP was calculated by Excel XLfit 5.3.1.3.

[2] = biological target: USP1 (Recombinant Human His6-USP1/His6-UAF1 Complex Protein) (Homo sapiens (Human), UniProt O94782); test: In vitro activity assay for USP1 (Ub-CHOP2-Reporter deubiquitination assay); assay type: biochemical; settings: 0.5 h incubation at room temperature, read-out: In vitro inhibitory activity of USP1 IC50
Sequence of USP1 (Recombinant Human His6-USP1/His6-UAF1 Complex Protein) (O94782 whole entry): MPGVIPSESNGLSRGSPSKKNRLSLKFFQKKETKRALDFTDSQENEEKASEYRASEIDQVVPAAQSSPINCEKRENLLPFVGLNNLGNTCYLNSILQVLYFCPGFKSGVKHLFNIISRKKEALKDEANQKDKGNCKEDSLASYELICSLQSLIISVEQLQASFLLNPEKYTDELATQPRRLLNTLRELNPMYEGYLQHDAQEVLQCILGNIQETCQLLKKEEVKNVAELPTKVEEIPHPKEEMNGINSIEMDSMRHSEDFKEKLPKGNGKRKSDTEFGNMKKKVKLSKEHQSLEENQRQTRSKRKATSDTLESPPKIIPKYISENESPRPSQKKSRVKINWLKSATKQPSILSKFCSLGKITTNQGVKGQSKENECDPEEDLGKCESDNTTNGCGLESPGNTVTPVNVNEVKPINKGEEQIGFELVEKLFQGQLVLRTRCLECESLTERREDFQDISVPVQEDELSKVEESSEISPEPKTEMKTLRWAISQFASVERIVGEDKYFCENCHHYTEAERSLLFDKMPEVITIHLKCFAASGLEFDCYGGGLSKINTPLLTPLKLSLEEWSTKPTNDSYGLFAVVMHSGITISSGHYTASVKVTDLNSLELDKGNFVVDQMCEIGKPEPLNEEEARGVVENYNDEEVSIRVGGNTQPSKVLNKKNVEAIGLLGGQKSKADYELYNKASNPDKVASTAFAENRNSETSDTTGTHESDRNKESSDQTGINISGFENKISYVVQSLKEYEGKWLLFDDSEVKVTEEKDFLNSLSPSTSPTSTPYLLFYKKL
Sequence of USP1 (Recombinant Human His6-USP1/His6-UAF1 Complex Protein) (Q8TAF3 whole entry partner): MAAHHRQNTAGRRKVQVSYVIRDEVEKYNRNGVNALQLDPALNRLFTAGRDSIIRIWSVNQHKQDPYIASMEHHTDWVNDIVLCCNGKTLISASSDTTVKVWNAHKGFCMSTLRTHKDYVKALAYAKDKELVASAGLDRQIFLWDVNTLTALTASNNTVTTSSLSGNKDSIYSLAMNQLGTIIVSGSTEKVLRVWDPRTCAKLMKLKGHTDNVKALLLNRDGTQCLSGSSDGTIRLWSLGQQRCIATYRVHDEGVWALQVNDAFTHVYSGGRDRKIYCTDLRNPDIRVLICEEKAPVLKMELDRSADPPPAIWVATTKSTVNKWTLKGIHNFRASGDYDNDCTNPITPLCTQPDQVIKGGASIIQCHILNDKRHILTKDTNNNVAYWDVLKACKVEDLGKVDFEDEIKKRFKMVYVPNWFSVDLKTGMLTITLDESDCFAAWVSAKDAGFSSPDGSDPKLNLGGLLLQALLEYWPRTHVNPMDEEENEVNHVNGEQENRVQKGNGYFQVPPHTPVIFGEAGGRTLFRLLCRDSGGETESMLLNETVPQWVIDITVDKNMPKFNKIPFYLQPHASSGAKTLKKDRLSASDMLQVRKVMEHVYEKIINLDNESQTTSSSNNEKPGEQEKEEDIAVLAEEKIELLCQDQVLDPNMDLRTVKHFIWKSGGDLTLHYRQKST
Outline: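 His6-USP1/His6-UAF1 complex was mixed with compound in 20 mM Tris-HCl pH 8.0, 2 mM CaCl2, 2 mM β-mercaptoethanol and 0.05% CHAPS. Ub-CHOP2 reporter system plus substrate was added, then incubated 0.5 h at room temperature. IC50 came from a four-parameter logistic fit.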

[3] = In vivo pharmacokinetics in SD rats; settings: male, rat, plasma
Method: Using SD rats as test animals, drug concentrations in plasma of the rats at different times after intravenous injection and intragastric administration of the compounds provided in the present application were determined by LC/MS/MS. In vivo pharmacokinetic behaviors of the compounds provided in the present application in rats were investigated to evaluate pharmacokinetic characteristics of the compounds.
There were three healthy 6-8-week-old male SD rats in each group.
Intravenous administration: A certain amount of drug was weighed, and then 10 vol % N,N-dimethylacetamide, 33 vol % triethylene glycol, and 57 vol % physiological saline were added to prepare 1 mg/mL colorless clear and transparent liquid;
Intragastric administration: A certain amount of drug was weighed, and then 0.5 wt % hydroxypropyl methylcellulose, 0.1 vol % tween 80, and 99.6 vol % physiological saline were added to prepare 1 mg/mL white suspension.
After fasting overnight, the SD rats were dosed intravenously or intragastrically.
The compounds provided in the present application were administered intravenously to the rats, then 0.2 mL of blood was collected from jugular veins respectively at 0.083, 0.25, 0.5, 1, 2, 4, 8, and 24 h after the administration, and placed in a test tube containing EDTA-K2. The test tube was then centrifuged at 4000 rpm at 4° C. for 5 min to separate plasma, and the plasma was stored at −75° C. Alternatively, the compounds provided in the present application were administered intragastrically to the rats, then 0.2 mL of blood was collected from jugular veins respectively at 0.25, 0.5, 1, 2, 4, 8, and 24 h after the administration, and placed in a test tube containing EDTA-K2. The test tube was then centrifuged at 3500 rpm at 4° C. for 10 min to separate plasma, and the plasma was stored at −75° C.
The content of the compounds to be tested in rat plasma after intravenous administration or intragastric administration at different concentrations was determined: 30 μL of rat plasma at each time after administration was taken, 200 μL (50 ng/mL) of solution of internal standard dexamethasone in acetonitrile was added, then the resulting mixture was vortex-mixed for 30 s, and centrifuged at 4700 rpm at 4° C. for 15 min, the supernatant of plasma samples was diluted three times with water, and 2.0 μL of diluted solution was taken for LC-MS/MS.

Sequence of CYP2C19 (P33261 whole entry): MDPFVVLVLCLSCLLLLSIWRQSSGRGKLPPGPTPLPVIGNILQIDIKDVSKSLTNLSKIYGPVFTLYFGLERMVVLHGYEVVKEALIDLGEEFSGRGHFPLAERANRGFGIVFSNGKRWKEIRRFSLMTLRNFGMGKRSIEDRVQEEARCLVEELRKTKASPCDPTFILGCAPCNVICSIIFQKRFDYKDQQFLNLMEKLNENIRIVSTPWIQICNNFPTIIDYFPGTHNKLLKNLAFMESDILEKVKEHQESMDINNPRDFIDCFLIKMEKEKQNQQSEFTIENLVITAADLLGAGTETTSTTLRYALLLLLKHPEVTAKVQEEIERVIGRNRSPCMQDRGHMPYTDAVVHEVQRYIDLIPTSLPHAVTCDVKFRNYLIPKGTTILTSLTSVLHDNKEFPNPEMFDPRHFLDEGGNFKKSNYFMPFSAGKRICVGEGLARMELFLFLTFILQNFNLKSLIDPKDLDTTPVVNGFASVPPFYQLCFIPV

An IC50 [1] of 17.1 µM, an IC50 [2] of 0.0454 µM and a Vd ([3]; IV 1 mg/kg, read-out: Apparent volume of distribution Vss_obs) of 3.2 L/kg were found for `COc1ncnc(C2CC2)c1-c1ncc2c(n1)N(Cc1ccc(-c3nc(C(F)(F)F)cn3C)cc1)CC(=O)N2C` [Compound 11, 2-(4-cyclopropyl-6-methoxypyrimidin-5-yl)-5-methyl-8-(4-(1-methyl-4-(trifluoromethyl)-1H-imidazol-2-yl)benzyl)-7,8-dihydropteridin-6(5H)-one] in this work. For the same compound, the clearance ([3]; IV 1 mg/kg, read-out: Clearance CL_obs) was 16.5 mL/min/kg, the half-life ([3]; IV 1 mg/kg, read-out: Half-life period T1/2 (converted)) was 3.2 h and the bioavailability ([3]; PO 5 mg/kg versus IV, read-out: Bioavailability F) was 96.3%. The Cmax ([3]; PO 5 mg/kg, read-out: Maximum plasma concentration Cmax) was 1010 ng/mL.

From patent publication US20240226107A1, “UBIQUITIN-SPECIFIC PROTEASE 1 (USP1) INHIBITOR” (SIMCERE ZAIMING PHARMACEUTICAL CO., LTD., priority 2021, published 2024)
